Experimental data reported in patent US20230322769A1, “HETEROAROMATIC RING COMPOUND AS RET KINASE INHIBITOR, AND PREPARATION AND USE THEREOF” (JIANGSU CHIA TAI FENGHAI PHARMACEUTICAL CO., LTD., priority 2020, published 2023).
Like-named read-outs stand apart in the source and are kept apart here.

What was measured:
Ba/F3 KIF5B-RET cells = experiment: Ba/F3 KIF5B-RET cell inhibition (CellTiter-Glo); type: cell-based; conditions: Mus musculus, BaF3, 72 h
Experimental: (§1) Activity Experiment 3: Inhibition of Ba/F3 KIF5B-RET Cells by Prepared Compounds Ba/F3 KIF5B-RET, Ba/F3KIF5B-RET-V804M, Ba/F3 RET-M918T and Ba/F3 KIF5B-RET-G810R cells growing in log phase were harvested and counted using a […]. The cell viability was determined by the trypan blue exclusion method, and the cell viability was kept over 90%. The cell concentration was adjusted, and 90 μL of the cell suspension was added to a 96-well plate. The cells in the 96-well plate were incubated overnight at 37° C. with 5% CO2 and 95% humidity. Corresponding gradient concentrations of drug solutions (the maximum concentration was 1000 nM) were added to the 96-well plate inoculated with cells at 10 μL/well. Triplicate wells were set per drug concentration, and the final concentration of DMSO was 0.1%. The drug-treated cells in the 96-well plate were incubated for another 72 h at 37° C. with 5% CO2 and 95% humidity. After the drug treatment was completed, 100 μL of CellTiter-Glo reagent was added to each well. The cell plate was shaken on an orbital shaker for 5 min to lyse the cells and then let stand at room temperature for 20 min to stabilize the luminescence signals, and then the luminescence values were read. The data were analyzed using the GraphPad Prism 5.0 software. Dose-response curves were fit to the data using nonlinear S-curve regression, and IC50 was calculated from the curves.

hERG potassium channel [1] = target: T1, hERG potassium channel (Homo sapiens (Human), UniProt Q12809); experiment: Inhibition of hERG potassium channel, whole-cell patch clamp in HEK293 cells
Ba/F3 RET-M918T cells = experiment: Ba/F3 RET-M918T cell inhibition (CellTiter-Glo); type: cell-based; conditions: Mus musculus, BaF3, 72 h
Experimental: as §1

[2] = test system: Ba/F3 KIF5B-RET-V804M cells; experiment: Ba/F3 KIF5B-RET-V804M cell inhibition (CellTiter-Glo); type: cell-based; conditions: Mus musculus, BaF3, 72 h
Experimental: as §1

[3] = test system: Ba/F3 KIF5B-RET-G810R cells; experiment: Ba/F3 KIF5B-RET-G810R cell inhibition (CellTiter-Glo); type: cell-based; conditions: Mus musculus, BaF3, 72 h, maximum concentration 1000 nM
Experimental: as §1

in vitro = conditions: human, microsomes; for microsomal CLint at 1 µM: CLint (μL/min/mg); for half-life at 1 µM: T1/2 (min)
hERG potassium channel [4] = target: T1, hERG potassium channel
RET (V804M) = RET (V804M) (Homo sapiens (Human), UniProt P07949, V804M); experiment: HTRF kinase activity assay, RET (V804M); type: biochemical; conditions: 10 μM ATP
CCDC6-RET [5] = target: CCDC6-RET (Homo sapiens (Human), UniProt P07949+Q16204); experiment: HTRF kinase activity assay, CCDC6-RET; type: biochemical; conditions: 1 μM ATP
KDR (VEGFR2) = KDR (VEGFR2) (Homo sapiens (Human), UniProt P35968); experiment: HTRF kinase activity assay, KDR; type: biochemical; conditions: 20 μM ATP
RET (M918T) = RET (M918T) (Homo sapiens (Human), UniProt P07949, M918T); experiment: HTRF kinase activity assay, RET (M918T); type: biochemical; conditions: 10 μM ATP
RET wild type (RET WT) = RET wild type (RET WT) (Homo sapiens (Human), UniProt P07949); experiment: HTRF kinase activity assay, RET wild type; type: biochemical; conditions: 1 μM ATP
CCDC6-RET [6] = target: CCDC6-RET (Homo sapiens (Human), UniProt P07949); experiment: HTRF kinase activity assay, CCDC6-RET; type: biochemical; conditions: 1 μM ATP
[7] = Metabolic stability in human liver microsomes
[8] = read-out: IC50 for inhibition of hERG potassium channel, HEK293 cells stably expressing hERG, patch clamp
[9] = CLint (μL/min/mg), human liver microsomes, NADPH, Table 3
[10] = T1/2 (min), human liver microsomes, NADPH, Table 3

Chain of KDR (VEGFR2) (P35968 20-1356): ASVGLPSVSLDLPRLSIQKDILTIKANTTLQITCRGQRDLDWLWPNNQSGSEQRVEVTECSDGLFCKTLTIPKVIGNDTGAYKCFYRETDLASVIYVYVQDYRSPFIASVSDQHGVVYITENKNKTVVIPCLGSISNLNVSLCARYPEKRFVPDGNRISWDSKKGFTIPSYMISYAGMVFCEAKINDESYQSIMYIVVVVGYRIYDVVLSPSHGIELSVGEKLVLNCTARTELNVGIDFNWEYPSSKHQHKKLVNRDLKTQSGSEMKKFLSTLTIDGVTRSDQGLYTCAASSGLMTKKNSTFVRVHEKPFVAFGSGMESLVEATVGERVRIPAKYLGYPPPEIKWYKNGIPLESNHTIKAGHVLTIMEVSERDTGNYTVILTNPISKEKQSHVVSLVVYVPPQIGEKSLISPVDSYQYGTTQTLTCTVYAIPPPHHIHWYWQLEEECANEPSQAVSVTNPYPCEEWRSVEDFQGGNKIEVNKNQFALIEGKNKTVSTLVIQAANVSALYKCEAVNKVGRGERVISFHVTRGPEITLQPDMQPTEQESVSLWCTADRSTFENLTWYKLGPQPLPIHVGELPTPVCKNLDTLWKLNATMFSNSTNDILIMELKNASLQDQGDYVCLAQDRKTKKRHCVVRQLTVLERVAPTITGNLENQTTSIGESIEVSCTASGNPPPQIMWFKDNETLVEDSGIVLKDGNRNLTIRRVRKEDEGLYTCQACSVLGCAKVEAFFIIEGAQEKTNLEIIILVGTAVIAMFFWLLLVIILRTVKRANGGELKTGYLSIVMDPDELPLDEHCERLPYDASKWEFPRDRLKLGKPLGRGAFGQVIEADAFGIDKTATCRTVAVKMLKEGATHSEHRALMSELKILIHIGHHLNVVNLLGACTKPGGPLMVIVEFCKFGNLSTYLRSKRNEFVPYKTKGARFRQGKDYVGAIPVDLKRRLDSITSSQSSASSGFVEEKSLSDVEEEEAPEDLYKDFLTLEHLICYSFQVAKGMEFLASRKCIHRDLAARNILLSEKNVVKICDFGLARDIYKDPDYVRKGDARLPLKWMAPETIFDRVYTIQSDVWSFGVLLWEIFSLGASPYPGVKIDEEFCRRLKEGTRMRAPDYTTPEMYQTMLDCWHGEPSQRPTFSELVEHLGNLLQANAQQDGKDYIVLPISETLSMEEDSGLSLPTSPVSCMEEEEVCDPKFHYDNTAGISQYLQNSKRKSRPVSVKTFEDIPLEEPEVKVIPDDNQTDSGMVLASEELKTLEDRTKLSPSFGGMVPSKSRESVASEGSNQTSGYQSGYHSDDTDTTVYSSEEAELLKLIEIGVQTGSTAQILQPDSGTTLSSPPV
Chain of CCDC6-RET (Homo sapiens (Human), UniProt P07949) (P07949 other isoform, or with tags, fused parts or gaps): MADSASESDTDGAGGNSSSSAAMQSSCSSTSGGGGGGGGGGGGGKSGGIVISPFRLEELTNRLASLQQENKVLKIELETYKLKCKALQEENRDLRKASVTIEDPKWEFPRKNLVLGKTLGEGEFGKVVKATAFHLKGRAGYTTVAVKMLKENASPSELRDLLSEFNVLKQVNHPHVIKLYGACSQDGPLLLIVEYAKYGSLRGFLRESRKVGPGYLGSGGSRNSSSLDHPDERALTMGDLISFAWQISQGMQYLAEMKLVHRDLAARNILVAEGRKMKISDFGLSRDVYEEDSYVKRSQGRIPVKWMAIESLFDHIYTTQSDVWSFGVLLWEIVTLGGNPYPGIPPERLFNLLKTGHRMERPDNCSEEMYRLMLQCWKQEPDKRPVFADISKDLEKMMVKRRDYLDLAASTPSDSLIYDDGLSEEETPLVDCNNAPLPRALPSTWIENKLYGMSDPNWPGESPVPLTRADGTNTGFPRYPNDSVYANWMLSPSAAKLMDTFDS
Chain of CCDC6-RET (Homo sapiens (Human), UniProt P07949+Q16204) (P07949 other isoform, or with tags, fused parts or gaps): as above
T1 sequence (Q12809 whole entry): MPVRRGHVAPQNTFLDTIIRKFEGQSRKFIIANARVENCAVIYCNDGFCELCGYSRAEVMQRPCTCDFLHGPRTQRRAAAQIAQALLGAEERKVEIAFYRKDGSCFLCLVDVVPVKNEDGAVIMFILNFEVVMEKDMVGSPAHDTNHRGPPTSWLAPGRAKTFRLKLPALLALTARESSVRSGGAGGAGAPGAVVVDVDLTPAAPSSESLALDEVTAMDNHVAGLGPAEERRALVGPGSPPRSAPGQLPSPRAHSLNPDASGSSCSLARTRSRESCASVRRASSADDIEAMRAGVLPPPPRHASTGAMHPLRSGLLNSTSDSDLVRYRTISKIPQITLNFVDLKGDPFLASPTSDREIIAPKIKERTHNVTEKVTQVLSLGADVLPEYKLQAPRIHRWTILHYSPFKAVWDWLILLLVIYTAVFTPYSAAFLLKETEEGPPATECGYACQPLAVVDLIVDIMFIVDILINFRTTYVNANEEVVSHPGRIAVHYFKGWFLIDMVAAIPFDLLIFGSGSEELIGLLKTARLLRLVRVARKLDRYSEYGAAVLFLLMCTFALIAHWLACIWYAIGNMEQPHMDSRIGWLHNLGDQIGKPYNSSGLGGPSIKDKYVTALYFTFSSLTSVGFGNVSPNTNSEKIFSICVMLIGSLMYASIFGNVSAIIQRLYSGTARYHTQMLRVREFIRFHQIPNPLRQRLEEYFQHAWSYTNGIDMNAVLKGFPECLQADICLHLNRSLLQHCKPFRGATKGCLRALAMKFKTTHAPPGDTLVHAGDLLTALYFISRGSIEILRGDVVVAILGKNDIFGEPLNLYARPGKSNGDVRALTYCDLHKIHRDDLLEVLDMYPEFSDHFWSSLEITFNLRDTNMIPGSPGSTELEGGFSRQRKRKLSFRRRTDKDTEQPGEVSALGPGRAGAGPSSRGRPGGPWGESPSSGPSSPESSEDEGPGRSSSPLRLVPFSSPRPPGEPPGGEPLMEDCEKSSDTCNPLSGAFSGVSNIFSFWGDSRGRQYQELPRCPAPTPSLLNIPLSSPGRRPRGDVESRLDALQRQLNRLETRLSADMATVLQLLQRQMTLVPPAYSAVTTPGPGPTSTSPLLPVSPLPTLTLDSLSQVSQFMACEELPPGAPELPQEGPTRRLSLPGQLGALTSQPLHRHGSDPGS
Chain of RET wild type (RET WT) (P07949 29-1114): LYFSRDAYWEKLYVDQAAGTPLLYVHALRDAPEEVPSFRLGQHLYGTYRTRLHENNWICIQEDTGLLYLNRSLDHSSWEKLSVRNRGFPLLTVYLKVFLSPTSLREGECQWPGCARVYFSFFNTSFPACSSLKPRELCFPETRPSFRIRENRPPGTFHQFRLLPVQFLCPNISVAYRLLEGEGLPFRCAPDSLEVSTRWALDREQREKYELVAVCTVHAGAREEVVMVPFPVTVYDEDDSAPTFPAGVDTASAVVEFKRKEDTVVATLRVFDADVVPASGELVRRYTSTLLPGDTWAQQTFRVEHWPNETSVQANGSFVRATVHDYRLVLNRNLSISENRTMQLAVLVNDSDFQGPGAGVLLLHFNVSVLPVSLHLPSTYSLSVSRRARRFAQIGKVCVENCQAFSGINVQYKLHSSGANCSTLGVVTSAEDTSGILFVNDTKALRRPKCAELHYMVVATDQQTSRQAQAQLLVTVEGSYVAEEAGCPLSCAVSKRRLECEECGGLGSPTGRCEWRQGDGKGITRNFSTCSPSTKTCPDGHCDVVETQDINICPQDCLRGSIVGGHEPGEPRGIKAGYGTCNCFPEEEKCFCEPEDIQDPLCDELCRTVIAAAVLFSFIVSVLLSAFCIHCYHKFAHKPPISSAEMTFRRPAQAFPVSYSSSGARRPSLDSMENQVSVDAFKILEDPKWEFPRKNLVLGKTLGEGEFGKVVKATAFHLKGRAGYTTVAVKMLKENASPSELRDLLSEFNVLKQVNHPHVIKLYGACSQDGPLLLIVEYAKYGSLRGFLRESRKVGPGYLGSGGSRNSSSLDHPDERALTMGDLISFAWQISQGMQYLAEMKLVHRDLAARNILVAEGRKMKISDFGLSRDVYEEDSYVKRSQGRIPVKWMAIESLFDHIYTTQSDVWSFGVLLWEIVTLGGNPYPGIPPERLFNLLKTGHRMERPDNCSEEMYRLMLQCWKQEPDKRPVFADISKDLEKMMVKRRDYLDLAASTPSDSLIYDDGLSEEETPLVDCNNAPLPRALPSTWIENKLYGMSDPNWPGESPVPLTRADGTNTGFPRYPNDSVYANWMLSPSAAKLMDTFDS
Chain of RET (V804M) (P07949 29-1114 V804M): as the sequence (P07949 29-1114) above, with V776M counted along it
Chain of RET (M918T) (P07949 29-1114 M918T): as the sequence (P07949 29-1114) above, with M890T counted along it

SMILES	IC50 (Ba/F3 KIF5B-RET cells) [nM]	IC50 (RET (V804M)) [nM]	IC50 (KDR (VEGFR2)) [nM]	IC50 (RET (M918T)) [nM]	IC50 (RET wild type (RET WT)) [nM]	also measured
COc1ccc(CN2C3CC2CN(c2ccc(-c4cc(N5CCN(C)C(=O)C5)cn5ncc(C#N)c45)cn2)C3)cn1 [Compound 89]	24	–	–	–	–	IC50 (hERG potassium channel [1]; [8]): 7.17 µM; IC50 (Ba/F3 RET-M918T cells): 11.6 nM; IC50 [2]: 95.3 nM; IC50 [3]: 959 nM
COc1ccc(CN2C3CC2CN(c2ccc(-c4cc(N5CC6CC(C5)N6C)cn5ncc(C#N)c45)cn2)C3)cn1 [Compound 17]	–	–	–	–	–	microsomal CLint at 1 µM (in vitro): 36.4 µL/min/mg; half-life at 1 µM (in vitro): 38.1 min; IC50 (hERG potassium channel [4]): 1310 nM
COc1ccc(CN2CCCN(c3ccc(-c4cc(-c5cnn(C)c5)cn5ncc(C#N)c45)cn3)CC2)cn1 [Compound 32]	–	4.8	39.1	1.73	2.11	IC50 (CCDC6-RET [5]): 3.13 nM
COc1ccc(CN2C3CC2CN(c2ccc(-c4cc(N5CC(C)(O)C5)cn5ncc(C#N)c45)cn2)C3)cn1 [Compound 86]	3.66	–	–	–	–	–
COc1ccc(CN2C3CC2CN(c2ccc(-c4cc(C#CC(C)(C)O)cn5ncc(C#N)c45)cn2)C3)cn1 [Compound 66]	9.17	7.69	124	2.05	1.66	IC50 (CCDC6-RET [6]): 1.13 nM
COc1ccc(CN2C3CC2CN(c2ccc(-c4cc(-c5cnn6c5CCC6)cn5ncc(C#N)c45)cn2)C3)cn1 [Compound 51]	–	7.16	52	3.9	4.61	IC50 (CCDC6-RET [5]): 2.15 nM
[2H]C([2H])([2H])N1CCN(c2cc(-c3ccc(N4CC5CC(C4)[N+]5([O-])Cc4ccc(OC)nc4)nc3)c3c(C#N)cnn3c2)CC1 (stereo not shown) [Compound 99]	–	–	–	–	56.6	–
[2H]C([2H])([2H])[N+]1([O-])CCN(c2cc(-c3ccc(N4CC5CC(C4)N5Cc4ccc(OC)nc4)nc3)c3c(C#N)cnn3c2)CC1 [Compound 101]	–	–	215	–	2.5	–
COc1ccc(CN2C3CC2CN(c2ccc(-c4cc(N5CCNCC5)cn5ncc(C#N)c45)cn2)C3)cn1 [Compound 96]	41.8	–	–	–	–	IC50 (Ba/F3 RET-M918T cells): 45.1 nM; IC50 [2]: 196 nM
COc1ccc(CN2C3CC2CN(c2ccc(-c4cc(N5CCOCC5)cn5ncc(C#N)c45)cn2)C3)cn1 [Compound 65]	8.06	–	–	–	–	microsomal CLint at 1 µM [7, 9]: 44.8 µL/min/mg; half-life at 1 µM [7, 10]: 30.9 min; IC50 (hERG potassium channel [1]; [8]): 2.72 µM; IC50 (Ba/F3 RET-M918T cells): 23.9 nM; IC50 [2]: 58.6 nM
COc1ccc(CN2CCC(Nc3ccc(-c4cc(-c5cnn(C)c5)cn5ncc(C#N)c45)cn3)CC2)cn1 [Compound 21]	–	188	109	80	45	IC50 (CCDC6-RET [5]): 60.5 nM
COc1ccc(CN2CCN(c3ccc(-c4cc(-c5cc6n(n5)CCC6)cn5ncc(C#N)c45)cn3)CC2)cn1 [Compound 58]	–	19.3	134	9.52	4.98	–
COc1ccc(CN2C3CC2CN(c2ccc(-c4cc(N5CCCC(O)C5)cn5ncc(C#N)c45)cn2)C3)cn1 (stereo not shown) [Compound 82]	17.1	–	–	–	–	–
COc1ccc(CN2C3CC2CN(c2ccc(-c4cc(N5CCC(C)(O)C5)cn5ncc(C#N)c45)cn2)C3)cn1 (stereo not shown) [Compound 70]	0.99	1.01	23.9	1.62	1.17	microsomal CLint at 1 µM [7, 9]: 50.6 µL/min/mg; half-life at 1 µM [7, 10]: 27.4 min; IC50 (hERG potassium channel [1]): 4.74 µM; IC50 (CCDC6-RET [6]): 1.02 nM; IC50 (Ba/F3 RET-M918T cells): 1.15 nM; IC50 [2]: 11.9 nM; IC50 [3]: 194 nM
COc1ccc(CN2C3CC2CN(c2ccc(-c4cc(-c5cc6n(n5)CCC6)cn5ncc(C#N)c45)cn2)C3)cn1 [Compound 57]	–	–	–	–	–	half-life at 1 µM [7, 10]: 19.9 min; microsomal CLint at 1 µM (in vitro): 69.8 µL/min/mg
COc1ccc(CN2C3CC2CN(c2ccc(-c4cc(N5CC6CC(C5)N6)cn5ncc(C#N)c45)cn2)C3)cn1 [Compound 16]	–	–	–	–	–	microsomal CLint at 1 µM (in vitro): 8.8 µL/min/mg; half-life at 1 µM (in vitro): 158 min; IC50 (hERG potassium channel [4]): 2060 nM
COc1ccc(CN(C)C2CCCCC2N(C)c2ccc(-c3cc(-c4cnn(C)c4)cn4ncc(C#N)c34)cn2)cn1 (stereo not shown) [Compound 34]	–	210	311	97.8	35.8	IC50 (CCDC6-RET [5]): 71.6 nM
COc1ccc(CN2C3CC2CN(c2ccc(-c4cc(N5CCP(C)(=O)CC5)cn5ncc(C#N)c45)cn2)C3)cn1 [Compound 20]	–	–	–	–	–	half-life at 1 µM [7]: 231 min; microsomal CLint at 1 µM [7]: 6 µL/min/mg; IC50 (hERG potassium channel [1]; [8]): 22.2 µM
COc1ccc(CN2C3CC2CN(c2ccc(-c4cc(N5CCOCC5=O)cn5ncc(C#N)c45)cn2)C3)cn1 [Compound 69]	–	38.5	755	22.3	18.6	IC50 (CCDC6-RET [6]): 12 nM
COc1ccc(CN2C3CC2CN(c2ccc(-c4cc(N5CCN(C)CC5)cn5ncc(C#N)c45)cn2)C3)cn1 [Compound 87]	11.8	–	–	–	–	microsomal CLint at 1 µM [7, 9]: 35.8 µL/min/mg; half-life at 1 µM [7, 10]: 38.7 min; IC50 (hERG potassium channel [1]; [8]): 2.13 µM; IC50 (Ba/F3 RET-M918T cells): 13.4 nM; IC50 [2]: 116 nM; IC50 [3]: 431 nM
COc1ccc(CN2C3CC2CN(c2ccc(-c4cc(NCC(C)(C)O)cn5ncc(C#N)c45)cn2)C3)cn1 [Compound 78]	13.6	–	–	–	–	–
CO[C@]1(C(=O)N[C@@H](C)c2ccc(-n3cc(F)cn3)nc2)CC[C@H](c2nc(C)cc(Nc3cc(C)[nH]n3)n2)CC1 [BLU-667, reference compound]	11.3	–	–	–	–	IC50 (Ba/F3 RET-M918T cells): 12.9 nM; IC50 [2]: 11.1 nM; IC50 [3]: 481 nM
COc1ccc(CN2C3CC2CN(c2ccc(-c4cc(N5CCC(O)C5)cn5ncc(C#N)c45)cn2)C3)cn1 (stereo not shown) [Compound 67]	3.58	1.09	24.6	0.75	0.79	–
COc1ccc(CN2C3CC2CN(c2ccc(-c4cc(N5CCC(OC)C5)cn5ncc(C#N)c45)cn2)C3)cn1 (stereo not shown) [Compound 68]	2	5.37	16.6	8.47	1.3	IC50 (CCDC6-RET [6]): 2.54 nM
